According to patent publication EP4541797A1, “CAMPTOTHECIN DERIVATIVE, METHOD FOR PREPARING SAME, AND USE THEREOF” (Hangzhou Adcoris Biopharma Co., Ltd, priority 2022, dated 2024):
Like-named read-outs stand apart in the source and are kept apart here.

What was measured:
Type in all cases: cell-based
NCI-N87 cells = assay: Inhibitory activity on cancer cell growth (CCK-8, 72 h), NCI-N87 cells; conditions: Homo sapiens, NCI-N87, 72 h, human gastric cancer cells NCI-N87, 72 h incubation
Protocol: (§1) Human esophageal cancer cells OE33, human breast adenocarcinoma cells SK-BR-3 and human gastric cancer cells NCI-N87 were cultured in RPMI1640 (Cellmax) supplemented with 10% fetal bovine serum (Cellmax) respectively. Cells in the exponential growth phase were diluted to a concentration of 1×10^5cells/mL by culture medium and added to 96-well cell culture plates at 100µL per well, then incubated overnight in a 37°C incubator with 5% CO2. On the following day, the test compounds and control compounds were diluted to concentrations of 10000 nM, 2000 nM, 400 nM, 80 nM, 16 nM, 3.2 nM, 0.64 nM, and 0.13 nM by culture medium and added to the 96-well cell culture plates at 2µL per well, with three replicate wells for each concentration. Negative control and blank control groups without the addition of compounds were supplemented with 2µL of the dilution liquid per well. After the addition of the compounds, the plates were returned to the 37°C incubator with 5% CO2 to continue incubation for 72 h. After incubation, the cell culture plates were removed, and the culture medium was aspirated using a pipette. Then, 100µL of culture medium containing 10% CCK-8 was added to each well, and the plates were incubated at 37°C for 3 h. After incubation, the plates were removed, kept in the dark, and placed in ELISA plate. Absorbance was measured at 630nm as the reference wavelength and 450nm as the test wavelength. The IC50 values (Tables 1-3) were calculated using the four-parameter logistic regression method in GraphPad, based on the absorbance values. SN38 (7-ethyl-10-hydroxycamptothecin) and 10CPT (10-hydroxycamptothecin) were used as control compounds. For the IC50 values, wherein "++++" indicates an IC50 < 50 nM; "+++" indicates an IC50 between 50 nM and 100 nM; "++" indicates an IC50 between 100 nM and 500 nM; and "+" indicates an IC50 > 500 nM. Table 1: Inhibitory activity of compounds to inhibit the growth of OE33 cells

SK-BR-3 cells = assay: Inhibitory activity on cancer cell growth (CCK-8, 72 h), SK-BR-3 cells; conditions: Homo sapiens, SK-BR-3, 72 h, human breast adenocarcinoma cells SK-BR-3, 72 h incubation
Protocol: as §1

OE33 cells = assay: Inhibitory activity on cancer cell growth (CCK-8, 72 h), OE33 cells; conditions: Homo sapiens, OE33, 72 h, human esophageal cancer cells OE33, 72 h incubation
Protocol: as §1

[1] = numeric value or bound, read-out: IC50

## CC[C@@]1(O)C(=O)OCc2c1cc1n(c2=O)Cc2cc3c(CN4CCN(C(=O)OC)CC4)c(O)ccc3nc2-1 [Compound 9, 9-(1-(4-methoxycarbonylpiperazine))methyl-10-hydroxycamptothecin]
NCI-N87 cells; read-out: IC50
  IC50: < 50 nM
SK-BR-3 cells; read-out: IC50
  IC50: 50 to 100 nM
OE33 cells; read-out: IC50
  IC50: 100 to 500 nM

## CC[C@@]1(O)C(=O)OCc2c1cc1n(c2=O)Cc2cc3c(CN(C)C(C)C)c(O)ccc3nc2-1 [Compound 10, 9-(N-methyl-N-isopropylamino)methyl-10-hydroxycamptothecin]
NCI-N87 cells; bound stated, read-out: IC50
  IC50: < 100 nM
NCI-N87 cells; read-out: IC50
  IC50: < 50 nM
SK-BR-3 cells; bound stated, read-out: IC50
  IC50: < 100 nM
SK-BR-3 cells; read-out: IC50
  IC50: 50 to 100 nM
OE33 cells; [1]
  IC50: < 100 nM
OE33 cells; read-out: IC50
  IC50: 50 to 100 nM

## CC[C@@]1(O)C(=O)OCc2c1cc1n(c2=O)Cc2cc3c(CN(C)C4CC4)c(O)ccc3nc2-1 [Compound 17, 9-(N-methyl-N-cyclopropylamine)methyl-10-hydroxycamptothecin]
NCI-N87 cells; bound stated, read-out: IC50
  IC50: < 100 nM
NCI-N87 cells; read-out: IC50
  IC50: < 50 nM
SK-BR-3 cells; bound stated, read-out: IC50
  IC50: < 100 nM
SK-BR-3 cells; read-out: IC50
  IC50: 50 to 100 nM
OE33 cells; [1]
  IC50: < 100 nM
OE33 cells; read-out: IC50
  IC50: 50 to 100 nM

## CCN(C)Cc1c(O)ccc2nc3c(cc12)Cn1c-3cc2c(c1=O)COC(=O)[C@]2(O)CC [Compound 19, 9-(N-methylethylamine)methyl-10-hydroxycamptothecin]
NCI-N87 cells
  IC50: < 50 nM
NCI-N87 cells; bound stated
  IC50: < 100 nM
SK-BR-3 cells
  IC50: 50 to 100 nM
SK-BR-3 cells; bound stated
  IC50: < 100 nM
OE33 cells
  IC50: 50 to 100 nM
OE33 cells; numeric value or bound
  IC50: < 100 nM
